Results reported in patent US8440610B2, “Mapkap kinase-2 as a specific target for blocking proliferation of P53-defective cells” (Massachusetts Institute of Technology, priority 2004, dated 2013).

Columns and labels:
[1] = test system: mouse embryonic fibroblasts (MEFs); test: Colony survival assay in p53 wild-type and p53−/− MEFs; type: cell-based; details: MEFs that lacked p53; not seen in p53 wild-type MEFs
Protocol: FIGS. 29A-29B are graphs showing the results of a colony survival assay in which mouse embryonic fibroblasts (MEFs) were treated with increasing doses of doxorubicin or cisplatin for eight hours, rinsed twice with PBS and once with media, and re-plated at an initial density of 5,000 cells/10 cm^2 dish. After eleven days, the number of colonies on the plate was counted and normalized to the number of colonies formed by the same cell type in the absence of treatment with chemotherapeutic drugs. RNA interference using short hairpin RNAs was used with both the p53 wild-type MEFs and the p53^−/− MEFs to knock down the levels of MAPKAP kinase-2 (MK2 shRNA). Short hairpin RNAs against luciferase (luciferase shRNA) were used as a control. […] FIG. 29C is a series of Western blots using the indicated antibodies. These blots verify that p53 polypeptide, and the known p53-responsive gene product p21, is induced by DNA damage only in the p53 wild-type cells (lanes 2, 3, 5, and 6), but not in the p53^−/− cells (lanes 7-12). […]
The p53 tumor suppressor protein plays an important role in the cellular response to DNA damage by transcriptionally upregulating the Cdk inhibitor p21 to induce a G1 and G2 arrest. […] Cells were infected with lentiviruses delivering shRNAs against luciferase (control) or MK2 and analyzed 6 days later (FIG. 29C). […] Only minimal amounts of the p53 inducer protein p19ARF were detected. […]

[2] = test system: Cdc25C Ser-216 phosphorylation; details: Chk1-depleted cells, low doses of UCN-01 (~300 nM); cited from earlier work
Chk2 = Chk2 (Homo sapiens, UniProt O96017); details: Chk1 versus Chk2; cited from earlier work
MAPKAP kinase-2 [3] = target: T1, MAPKAP kinase-2 (Homo sapiens, UniProt P49137); test: Phosphorylation of hsp-27 on Ser-82 after heat shock in U2OS cells (immunoblot); type: cell-based; design: endogenous in cells; host or cells: U2OS cells; details: control luciferase shRNA U2OS cells, 42° C. for two hours, 250 nM UCN-01
Protocol: (§1) 14-3-3 pull-down assays, immunoblotting, and immunofluorescence. U2OS cells were lysed in lysis buffer: 50 mM Tris/HCl, pH7.8, 150 mM NaCl, 1.0% NP-40, 5 mM EDTA, 2 mM DTT, 8 μg/ml pepstatin, 8 μg/ml aprotinin, 8 μg/ml leupeptin, 2 mM Na3VO4, 10 mM NaF, 1 μM microcystin for twenty minutes at 4° C. Clarified lysates (0.5-2 mg protein) were incubated with 20 μL glutathione beads or amylose beads containing 10-20 μg 14-3-3-GST or 14-3-3-MBP, respectively, for 120 minutes at 4° C. Following washing, lysates and bead-bound proteins were analysed by SDS-PAGE, followed by transfer to PVDF membranes and immunoblotted with the indicated antibodies. For immunofluorescence experiments, U2OS cells were seeded onto 18 mm^2 coverslips, irradiated or mock-treated, fixed, extracted, and immunostained as described previously (Clapperton et al., Nat. Struct. Mol. Biol., 11:512-518, 2004).
Activation of MK2 by cisplatin, camptothecin, and doxorubicin is strikingly similar to the activation profile reported for Chk1. […] U2OS cells depleted of Chk1 using siRNA were exposed to cisplatin and doxorubicin, and analyzed for activation of MK2. […] The IC50 value we measured for Chk1 is in good agreement with previously published data. […]

MAPKAP kinase-2 [4] = target: T1, MAPKAP kinase-2; test: Kinetics of in vitro phosphorylation of MK2tides by MAPKAP kinase-2; type: biochemical; design: purchased Upstate; details: peptide as substrate of MAPKAP kinase-2
Source text: To verify the peptide library screening results, individual peptides (MK2tides) containing the optimal MAPKAP kinase-2 consensus motif LQRQLSI (SEQ ID NO: 16), or mutant versions with Ala substituted at each position in the motif, were synthesized and used for kinetic analysis (FIGS. 3B and 3C). […] The rank order of importance of key residues is Arg-3>Leu-5≈Ile+1>[…]. The optimal MK2tide had neither the lowest Km nor the highest Vmax, but rather had the highest Vmax/Km ratio, consistent with the fact that the peptide library screening approach selects substrates on the basis of optimal Vmax/Km, rather than low Km or high Vmax alone. […]
(§2) The sequences of the p38 optimal peptide and the p47phox peptide were KKAZGPQGPQSPIE (SEQ ID NO: 22) and KKAZGPQSPGSPLE (SEQ ID NO: 23), respectively. For 14-3-3 pulldowns of Cdc25B following in vitro phosphorylation by p38 or MAPKAP kinase-2, 2.0 μg of Cdc25B was incubated with 10-fold excess 14-3-3-MBP and analyzed by autoradiography. […] Samples were analyzed by SDS-PAGE followed by transfer to nitrocellulose for autoradiography and immunoblotting. The rate of p38α phosphorylation of isolated peptides and full-length p47phox proteins was determined by scintillation counting using peptide concentrations of 100, 400, and 1400 μM, and protein concentrations of 1, 5, 10 and 15 μM, with time points taken at five, ten, and twenty minutes. […]

p38 MAPK/MK2 pathway = test: Immunoblot of p38 MAPK/MK2 activation after DNA-damaging drugs in U2OS cells; type: cell-based, human
Protocol: as §1

U2OS cells = test: FACS cell cycle analysis (PI, phospho-histone H3) in U2OS cells; type: cell-based, human; details: untreated U2OS cells blocked in mitosis with nocodazole (100 nM, eighteen hours)
Protocol: Asynchronous MAPKAP kinase-2 or luciferase shRNA knockdown cells were mock treated or exposed to doxorubicin for thirty hours, and cell cycle progression was monitored by FACS. In one set of experiments, the spindle poison nocodazole was added to the media three hours after addition of doxorubicin, to cause any cells progressing through the cell cycle to arrest in mitosis. DNA content was monitored by PI staining; phospho-histone-H3 staining was used as an indicator of mitotic entry. As shown in the left panels of FIG. 14A, treatment of control luciferase shRNA knockdown cells with doxorubicin led to the accumulation of cells with 4N DNA content, and a lack of phospho-histone-H3 staining in either the absence or presence of nocodazole. The cells expressing the luciferase shRNAs behaved identically to the untransfected doxorubicin-treated control U2OS cell population (FIG. 24B), with the prominent 4N DNA component and the absence of phospho-histone-H3 staining indicative of an intact G2/M checkpoint.
In contrast to the G2/M checkpoint response observed in doxorubicin-treated cells, treatment with the DNA intra-strand cross-linker cisplatin caused U2OS cells to predominantly accumulate in the G1 and S phases of the cell cycle over the subsequent thirty hours (FIG. 24C). RNA interference was used to investigate the role of MAPKAP kinase-2 in this process. […] Strikingly, when nocodazole was added three hours following cisplatin addition, the MAPKAP kinase-2 depleted cells accumulated in a 4N DNA containing peak with ˜42% of the cells staining strongly for phospho-histone H3. Identical results were obtained in cells treated with a second unrelated siRNA sequence against MAPKAP kinase-2.
FACS analysis. UV irradiation was performed at 254 nm (UV-C) using a Stratalinker 2400 (Stratagene). U2OS cells were fixed in 70% ethanol overnight at −20° C., permeabilized with PBS containing 0.2% Triton X-100 for twenty minutes at 4° C., blocked with 2% FBS in PBS, and incubated with 1 μg of anti-phospho-histone H3 per 10^6 cells for sixty minutes on ice. […]

p38α SAPK = p38α SAPK (Homo sapiens, UniProt Q16539); test: Kinetics of in vitro substrate phosphorylation by p38α SAPK; type: biochemical; details: GST-tagged full-length protein as substrate
Source text: Wild-type and mutant versions of GST-tagged full-length p47phox protein, rather than isolated peptides, were then used as substrates for in vitro phosphorylation reactions. The wild-type full-length p47phox protein was rapidly phosphorylated by p38α SAPK (FIGS. 1C and 1D). […] Simultaneous mutation of both Ser345 and Ser348 to Ala eliminated phosphorylation of p47phox by p38 SAPK altogether.
as §2, with “autoradiography. For kinetic measurements, the reactions were terminated by the addition of an equal volume of 0.5 percent phosphoric acid, and 5 μl was spotted onto p81 paper.” for “autoradiography.”

Sequence of p38α SAPK (Q16539 whole entry): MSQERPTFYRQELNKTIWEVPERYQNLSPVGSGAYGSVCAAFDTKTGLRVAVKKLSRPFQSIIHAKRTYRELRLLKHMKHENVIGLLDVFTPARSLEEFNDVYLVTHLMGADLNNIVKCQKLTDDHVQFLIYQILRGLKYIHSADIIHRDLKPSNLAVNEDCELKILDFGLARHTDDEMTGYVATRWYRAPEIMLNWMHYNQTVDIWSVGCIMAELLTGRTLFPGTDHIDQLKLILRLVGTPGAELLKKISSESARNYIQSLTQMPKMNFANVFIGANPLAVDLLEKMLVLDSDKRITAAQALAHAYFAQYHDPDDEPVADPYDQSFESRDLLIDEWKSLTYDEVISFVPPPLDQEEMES
T1 sequence (P49137 whole entry): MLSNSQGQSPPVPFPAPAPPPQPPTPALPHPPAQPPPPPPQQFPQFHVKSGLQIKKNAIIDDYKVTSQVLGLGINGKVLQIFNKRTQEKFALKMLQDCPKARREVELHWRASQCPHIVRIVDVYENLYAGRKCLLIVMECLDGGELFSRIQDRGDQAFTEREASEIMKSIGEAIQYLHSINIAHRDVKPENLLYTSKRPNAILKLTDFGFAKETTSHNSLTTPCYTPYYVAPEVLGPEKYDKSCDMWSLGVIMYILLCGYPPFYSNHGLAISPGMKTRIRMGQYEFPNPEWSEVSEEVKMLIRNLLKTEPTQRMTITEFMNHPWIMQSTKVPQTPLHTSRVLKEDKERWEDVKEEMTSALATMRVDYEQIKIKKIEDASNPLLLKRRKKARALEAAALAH
Sequence of Chk2 (O96017 whole entry, species assumed): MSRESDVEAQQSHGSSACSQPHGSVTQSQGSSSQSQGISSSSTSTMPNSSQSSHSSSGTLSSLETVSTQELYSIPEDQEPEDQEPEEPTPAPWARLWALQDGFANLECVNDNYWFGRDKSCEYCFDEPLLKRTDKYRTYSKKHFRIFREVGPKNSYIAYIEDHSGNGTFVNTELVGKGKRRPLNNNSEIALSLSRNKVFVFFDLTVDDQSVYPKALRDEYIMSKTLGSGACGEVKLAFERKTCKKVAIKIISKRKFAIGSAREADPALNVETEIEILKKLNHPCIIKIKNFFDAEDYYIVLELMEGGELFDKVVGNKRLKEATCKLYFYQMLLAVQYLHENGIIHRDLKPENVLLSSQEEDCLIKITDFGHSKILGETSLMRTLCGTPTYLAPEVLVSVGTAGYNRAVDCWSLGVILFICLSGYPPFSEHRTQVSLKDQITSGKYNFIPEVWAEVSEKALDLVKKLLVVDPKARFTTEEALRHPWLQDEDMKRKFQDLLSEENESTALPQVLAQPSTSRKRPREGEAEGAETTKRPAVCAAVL

## MK2 shRNA: lentivirally delivered short hairpin RNA against murine MAPKAP kinase-2 (SEQ ID NO: 26) (TCGATGCGTGTTGACTATGATTCAAGAGATCATAGTCAACACGCATCGTTTTTTC)
[1]
  sensitivity to doxorubicin and cisplatin (colony survival): increased sensitivity

## CN[C@@H]1C[C@H]2O[C@@](C)([C@@H]1OC)n1c3ccccc3c3c4c(c5c6ccccc6n2c5c31)C(=O)N[C@H]4O [UCN-01, 7-hydroxystaurosporin]
[2]
  phosphorylation of Cdc25C on Ser-216: lost
Chk2
  IC50 for Chk1 lower than that for Chk2: ~1000 fold
MAPKAP kinase-2 [3]
  phosphorylation of hsp-27 on Ser-82: completely abrogated

## MK2tide: peptide containing the optimal MAPKAP kinase-2 consensus motif LQRQLSI (SEQ ID NO: 16)
MAPKAP kinase-2 [4]
  Km value relative to the best MAPKAP kinase-2 peptide substrate known to date (HSP27-derived sequence): two-fold lower

## CC[C@@]1(O)C(=O)OCc2c1cc1n(c2=O)Cc2cc3ccccc3nc2-1 [camptothecin]
p38 MAPK/MK2 pathway; U2OS cells, 10 μM drug
  time to MK2 activation (reduction in electrophoretic mobility, pThr-344): within four hour

## COC(=O)Nc1nc2ccc(C(=O)c3cccs3)cc2[nH]1 [nocodazole]
U2OS cells
  cells staining for phospho-histone H3: 42%

## C[S+]([O-])c1ccc(-c2nc(-c3ccncc3)c(-c3ccc(F)cc3)[nH]2)cc1 (stereo not shown) [SB203580]
p38 MAPK/MK2 pathway
  MK2 activation by DNA damaging agents: completely abolished MK2 activation

B1: wild-type p47phox: GST-tagged full-length p47phox protein, cytosolic component of NADPH oxidase, used as p38 SAPK substrate (protein)
chain: MGDTFIRHIALLGFEKRFVPSQHYVYMFLVKWQDLSEKVVYRRFTEIYEFHKTLKEMFPIEAGAINPENRIIPHLPAPKWFDGQRAAENRQGTLTEYCSTLMSLPTKISRCPHLLDFFKVRPDDLKLPTDNQTKKPETYLMPKDGKSTATDITGPIILQTYRAIANYEKTSGSEMALSTGDVVEVVEKSESGWWFCQMKAKRGWIPASFLEPLDSPDETEDPEPNYAGEPYVAIKAYTAVEGDEVSLLEGEAVEVIHKLLDGWWVIRKDDVTGYFPSMYLQKSGQDVSQAQRQIKRGAPPRRSSIRNAHSIHQRSRKRLSQDAYRRNSVRFLQQRRRQARPGPQSPGSPLEEERQTQRSKPQPAVPPRPSADLILNRCSESTKRKLASAV
modifications: left off: a dimerising Fc or GST
notes: GST-tagged full-length p47phox protein, cytosolic component of NADPH oxidase, used as p38 SAPK substrate
p38α SAPK
  Vmax for p38 SAPK phosphorylation: 36.6 nmol/min/µg
p38α SAPK; read-out: Km for p38 SAPK phosphorylation
  Km: 6 µM
